# Data taken from US8846873B2, “Antibodies directed to GPNMB and uses thereof” (Celldex Therapeutics, Inc., priority 2004, dated 2014).
# pIC50: −log10 of the molar value.
# Tests used:
# [1] = tested on: SK-MEL-5 melanoma xenografts; test: Human SK-MEL-5 melanoma xenograft in athymic mice; type: in vivo
# Description: Test Animals: Five- to 6-week old athymic mice (CD-1 nu/nu females), used for human tumor xenografts, were obtained from Harlan Laboratories (Indianapolis, Ind.). Animals were housed in specific pathogen-free conditions, according to the guidelines of the Association for Assessment and Accreditation of Laboratory Animal Care International (AAALAC International). Test animals were provided pelleted food and water ad libitum and kept in a room with conditioned ventilation (HVAC), temperature (22°±2° C.), relative humidity (55%±15%), and photoperiod (12 hr). All studies were carried out with approved institutional animal care and use protocols.
# Human Melanoma Xenograft Models. The tumor inhibitory activity of the CR011-MMAE immunoconjugate was measured in an anti-tumor xenograft model using athymic mice, according to published methods (see Geran et al., Cancer Chemother. Rep. 3:1-104 (1972)). […] When tumors became established (10-20 days), the animals were pair-matched into groups (n=6 mice/group), and treatment was administered by intravenous injection (tail vein).
# The SK-MEL-2 human melanoma (ATCC #HTB-68) was derived from a metastatic site (skin of thigh) of a person with malignant melanoma, and the SK-MEL-5 human melanoma (ATCC #HTB-70) was derived from a metastatic site (axillary lymph node) of a person with malignant melanoma (see Fogh et al., J. Natl. Cancer Inst. 59: 221-226 (1977)). Both cell lines were obtained from the American Type Culture Collection.
# The effects of treatment were monitored by repetitive tumor measurements across 2 diameters with Vernier calipers; tumor size (in mg) was calculated using a standard formula, (W^2×L)/2, assuming a specific gravity of 1.0. Tumor size and body weights were assessed twice weekly. Mice were examined daily, however, and moribund animals were humanely euthanized if clinical indications of excessive pain or distress were noted (i.e., prostration, hunched posture, paralysis/paresis, distended abdomen, ulcerations, abscesses, seizures, and/or hemorrhages). Animals with tumors exceeding 2,000 mg were removed from the study and euthanized humanely.
# Soon after the commencement of treatment with paclitaxel, however, significant tumor growth inhibition was observed (P≦0.039) at day 3 after treatment began, and this anti-tumor effect continued, producing 100% growth inhibition (stasis). The responses of SK-MEL-5-bearing test animals to vinblastine and paclitaxel were short-lived. After cessation of treatment at the maximally tolerated doses, tumors resumed rapid, progressive growth.
# SK-Mel-2 cells [2] = test: Clonogenic assay after GPNMB siRNA transfection; type: cell-based, human
# Description: SK-MeI-2 cells are transfected with 50 nM of control siRNA or siRNA targeting GPNMB. A. Cell lysates are prepared from the transfected SK-Mel-2 cells 2 and 4 days post-transfection and the expression of GPNMB (upper panel) or actin (lower panel) is determined by immunoblotting. Lane 1: Mock (oligofectamine) transfection. Lane 2: Control siRNA transfection. Lane 3: GPNMB siRNA transfection. B. Flow cytometry analysis of GPNMB expression 2 and 4 days after transfection. SK-Mel-2 cells are transfected with mock, control siRNA or GPNMB siRNA as indicted in the Materials and Methods. C. […] The surviving fraction is normalized to the untreated control and expressed as a percentage of control using GraphPad Prism graphing software. Each treatment is performed in triplicate. A representative experiment from two independent studies is shown.
# (§1) Cells were plated in 96-well plates and allowed to recover overnight. […] The cells were then transferred into 6-well plates and allowed to form colonies. Colonies were stained with Giemsa stain (Sigma) and counted. The surviving cell fractions were calculated based upon the ratio of the treated sample and the untreated control. The results were expressed as a percentage of control using GraphPad Prism Version 4 software.
# The amount of GPNMB expression was reduced for at least 7 days after transfection.
# TK-10 cells = test: Cell cycle analysis (BrdU / propidium iodide flow cytometry); type: cell-based, human; details: for % G1 / % G2/M / % S-phase / % Sub-G1: TK-10, 24 hour
# Description: (§2) Briefly, cells were pulsed at the indicated times with 30 μM of bromodeoxyuridine (BrdU, Sigma) for 30 min, harvested, fixed and permeabilized in methanol. Nascent DNA synthesis was detected by anti-bromodeoxyuridine-FITC (BD Biosciences, San Jose, Calif.) staining. Total DNA content was detected using propidium iodide (PI, Sigma). For apoptosis analysis, cells were treated as above and labeled with Annexin V-FITC followed by propidium iodide exclusion using the Annexin V-FITC Apoptosis Detection kit I (BD PharMingen, San Diego, Calif.) according to the manufacturer's protocols. Flow cytometry (as described in the previous Example) was used to assay both cell cycle and apoptosis studies.
# (§3) DNA synthesis and cell cycle progression were determined by flow cytometry (Table 52).
# SK-Mel-2 cells [3] = test: as above; type: cell-based, human; details: for % G1 / % G2/M / % S-phase / % Sub-G1: SK-Mel-2, 24 hour
# Description: as §2, §3
# SNB-78 = test: Clonogenic assay, CR011-vcMMAE in vitro growth inhibition; type: cell-based, human
# Description: as §1
# XF-498 = test: as above; type: cell-based, human
# Description: as §1
# SF-539 = test: as above; type: cell-based, human
# Description: as §1
# U-118-MG = test: as above; type: cell-based, human
# Description: as §1
# SK-Mel 5 = test: Clonogenic assay with 1.15.1-AE; type: cell-based, human
# Description: (§4) Melanoma cell lines were plated onto flat bottom 96-well tissue culture plates (Becton Dickinson, Franklin Lakes, N.J., USA). On day 2 or when cells reach ˜25% confluency, various concentrations of unconjugated and Auristatin E-conjugated 1.15.1 were added to cells. MAb 2.6.2-AE was also used as a conjugated isotype control in this study. On day 5, the cells were trypsinized, transferred to 6-well tissue culture plates and incubated at 37° C. Plates were examined daily. On days 8-10, all plates were Giemsa stained and colonies on the plates were counted.
# HEMNLP = test: Clonogenic assay with 1.15.1-AE; type: cell-based, human
# Description: as §4
# G361 = test: Clonogenic assay with 1.15.1-AE; type: cell-based, human
# Description: as §4
substance,measurement,setting,value
CR011-vcMMAE: anti-GPNMB antibody 1.15.1 coupled to monomethylauristatin E via protease-sensitive valine-citrulline linker,complete regressions,[1]; 2.5 mg/kg/treatment,Complete regressions occurred
same,time after treatment began to significant anti-tumor effects,"[1]; 10 mg/kg/treatment, compared to PBS-treated controls",10 days
same,time after treatments began to significant anti-tumor effects,"[1]; 10 mg/kg/treatment, compared to saline",7 days
same,anti-tumor effect,"[1]; CR011-ONC-3, i.v., vs saline and PBS control groups","Substantial tumor growth inhibition, as well as tumor growth delay and complete regressions"
same,doses at which complete regressions occurred,"[1]; i.v., q4d x4",> 2.5 mg/kg
same,"toxicity (mortality, body weight or weight gain)",[1]; treated tumor-bearing animals,no indication of toxicity
same,sensitivity to growth-inhibitory activity following siRNA-mediated GPNMB knockdown,SK-Mel-2 cells [2],less sensitive
same,cycling of GPNMB-negative cells,TK-10 cells; 1000 ng/mL,did not affect the cycling
same,% G1,TK-10 cells; 100 ng/mL,51.1%
same,% G2/M,TK-10 cells; 100 ng/mL,4.5%
same,% S-phase,TK-10 cells; 100 ng/mL,35.1%
same,% Sub-G1,TK-10 cells; 100 ng/mL,0.7%
same,% G1,TK-10 cells; 1000 ng/mL,52.6%
same,% G2/M,TK-10 cells; 1000 ng/mL,3.9%
same,% S-phase,TK-10 cells; 1000 ng/mL,34.2%
same,% Sub-G1,TK-10 cells; 1000 ng/mL,0.8%
same,decreased percentage of cells in G1 and S-phase compared to untreated cells,"SK-Mel-2 cells [3]; 1000 ng/mL, 24 hrs",10%
same,increased percentage of cells in G2/M compared to untreated cells,"SK-Mel-2 cells [3]; 1000 ng/mL, 24 hrs",18.6%
same,increased percentage of cells in G2/M,"SK-Mel-2 cells [3]; 1000 ng/mL, 48 hr",24%
same,reduced percentage of cells in G1 and S-phase,"SK-Mel-2 cells [3]; 1000 ng/mL, 48 hr",11%
same,% G1,SK-Mel-2 cells [3]; 100 ng/mL,56.0%
same,% G2/M,SK-Mel-2 cells [3]; 100 ng/mL,12.4%
same,% S-phase,SK-Mel-2 cells [3]; 100 ng/mL,26.9%
same,% Sub-G1,SK-Mel-2 cells [3]; 100 ng/mL,0.2%
same,% G1,SK-Mel-2 cells [3]; 1000 ng/mL,43.7%
same,% G2/M,SK-Mel-2 cells [3]; 1000 ng/mL,28.5%
same,% S-phase,SK-Mel-2 cells [3]; 1000 ng/mL,20.0%
same,% Sub-G1,SK-Mel-2 cells [3]; 1000 ng/mL,1.1%
same,IC50,SNB-78,~0.45 µg/mL
same,IC50,XF-498,approximately 215 ng/mL
same,IC50,SF-539,~1.05 µg/mL
same,IC50,U-118-MG,~1.25 µg/mL
same,Clonogenic Assay with 1.15.1-AE IC50,SK-Mel 5,0.237 µg/mL
same,pIC50,SK-Mel 5,8.80
same,Clonogenic Assay with 1.15.1-AE IC50,HEMNLP,Inconclusive
same,Clonogenic Assay with 1.15.1-AE IC50,G361,1.053 µg/mL
same,pIC50,G361,8.19
